# Marks after values point to notes of the source that are not given here.
# Experiment: logP determination via retention times, calibrated with unbranched alkan-2-ones
# Type: physicochemical
# Details: HPLC on reversed-phase C 18, EEC Directive 79/831 Annex V.A8; method *: 40° C., 0.1% aqueous formic acid and acetonitrile, linear gradient 10% to 95% acetonitrile
row,logP,Compound
1,1.46*,O=CNc1cccc(Nc2ncc(Cl)c(NCC3CC3)n2)c1 [compound 546]
2,2.45*,CSc1cc(Nc2ncc(Cl)c(NCC3CC3)n2)ccc1C [compound 547]
3,1.68*,CC(=O)Nc1ccc(Nc2ncc(Cl)c(NCC3CC3)n2)cc1Cl [compound 505]
4,2.02*,CC(C)(CCl)C(=O)Nc1ccc(Nc2ncc(Cl)c(NCC3CC3)n2)cc1 [compound 556]
5,1.97*,Fc1ccc(Nc2ncc(Cl)c(NCC3CC3)n2)cc1 [compound 550]
6,2.63*,CC1CC(C)CN(c2cccc(Nc3ncc(Br)c(NC4CC4)n3)c2)C1 (stereo not shown) [compound 529]
7,2.51*,FC(F)Oc1cccc(Nc2ncc(Cl)c(NC3CC3)n2)c1 [compound 534]

# Same assay, conditions: HPLC on reversed-phase C18, method *: 40° C., 0.1% aqueous formic acid and acetonitrile, linear gradient 10% to 95% acetonitrile
row,Compound,logP
1,COc1cc(Nc2ncc(Br)c(NC3CC3)n2)cc(OC)c1OC [compound 761],1.71*
2,CC(=O)Nc1cc(Nc2ncc(Br)c(NC3CC3)n2)ccc1C [compound 113],1.35*
3,OC(c1cccc(Nc2ncc(C(F)(F)F)c(NC3CC3)n2)c1)C(F)(F)F (stereo not shown) [compound 666],2.69*
4,Clc1cnc(Nc2cccc(-n3ccnc3)c2)nc1NC1CC1 [compound 720],0.91*
5,Brc1cnc(Nc2ccc3c(c2)OCO3)nc1NC1CC1 [compound 752],1.66*
6,CC(C)Sc1ccccc1Nc1ncc(Cl)c(NC2CC2)n1 [compound 885],3.72*
7,CSc1cccc(Nc2ncc(Br)c(NC3CC3)n2)c1 [compound 121],2.44*
8,CCC(C)c1ccccc1Nc1ncc(Cl)c(NC2CC2)n1 (stereo not shown) [compound 907],2.11*
9,O=C(Nc1ccccc1)Nc1ccc(Nc2ncc(Cl)c(NC3CC3)n2)cc1 [compound 739],1.75*
10,CN(C)C(=O)c1cccc(Nc2ncc(Cl)c(NC3CC3)n2)c1 [compound 960],1.33*

# Next, values leading:
row,logP,Compound
1,3.63*,Clc1cc(Nc2ncc(Cl)c(NC3CC3)n2)ccc1Br [compound 919]
2,1.72*,CC1COC(=O)N1c1ccc(Nc2ncc(Br)c(NCC3CC3)n2)cc1 (stereo not shown) [compound 118]
3,1.99*,Brc1cnc(Nc2ccc(-c3cscn3)cc2)nc1NC1CC1 [compound 747]
4,1.63*,CCOC(=O)Nc1ccc(Nc2ncc(Cl)c(NC3CC3)n2)cc1 [compound 977]
5,2.99*,FC(F)Sc1ccc(Nc2ncc(Br)c(NC3CC3)n2)cc1 [Example 104]
6,2.77*,CCC(C)c1ccc(Nc2ncc(Cl)c(NC3CC3)n2)cc1 (racemic) [compound 954]
7,1.25*,Oc1ccc(Nc2ncc(Cl)c(NC3CC3)n2)cc1F [compound 105]

# Same assay, conditions: HPLC on reversed-phase C18, method *: 40° C.; mobile phase 0.1% aqueous formic acid and acetonitrile; linear gradient 10% to 95% acetonitrile
row,Compound,logP
1,CCOc1cccc(Nc2ncc(Cl)c(NC3CC3)n2)c1 [compound 293],2.06*
2,FC1(F)Oc2ccc(Nc3ncc(Cl)c(NC4CC4)n3)cc2OC1(F)F [compound 289],3.76*
3,Clc1cccc(Nc2ncc(Cl)c(NC3(c4ccccc4Cl)CC3)n2)c1 [compound 319],5.18*

# Results, then the compound that gave them:
row,logP,Compound
1,2.09*,CC(=O)c1ccc(Nc2ncc(Br)c(NC3CC3)n2)cc1 [compound 357]
2,1.83*,CC(C)(C)C(=O)Nc1ccc(Nc2ncc(Br)c(NC3CC3)n2)cc1 [compound 347]
3,2.09*,Fc1ccccc1Nc1ncc(Cl)c(NC2CC2)n1 [compound 275]

# Same assay, conditions: HPLC on reversed-phase C18 column (EEC Directive 79/831 Annex V.A8); method *: 40° C.; 0.1% aqueous formic acid and acetonitrile; linear gradient 10% to 95% acetonitrile
row,Compound,logP
1,CC(C)(C)C(=O)Nc1cccc(Nc2ncc(C(F)(F)F)c(NCC3CC3)n2)c1 [compound 205],2.77*
2,COc1cccc(Nc2ncc(C(F)(F)F)c(NCC3CC3)n2)c1 [compound 199],2.91*
3,COC(c1cccc(Nc2ncc(Cl)c(NC3CC3)n2)c1)C(F)(F)F (stereo not shown) [compound 270],2.69*

# Other lines, results leading:
row,logP,Compound
1,2.09*,N#CCC(=O)c1ccc(Nc2ncc(Cl)c(NC3CC3)n2)cc1 [compound 248]
2,2.49*,Brc1cnc(Nc2ccc(-c3nccs3)cc2)nc1NC1CC1 [compound 251]

# Same assay, conditions: HPLC reversed-phase C 18, EEC Directive 79/831 Annex V.A8; method **: 43° C., 0.1% aqueous phosphoric acid and acetonitrile, linear gradient 10% to 95% acetonitrile
row,logP,Compound
1,1.68**,CON(C(C)=O)c1cccc(Nc2ncc(Br)c(NC3CC3)n2)c1 [compound 849]
2,1.46**,O=c1ccccn1-c1cccc(Nc2ncc(Br)c(NC3CC3)n2)c1 [compound 833]

# Same assay, conditions: HPLC reversed-phase C 18, EEC Directive 79/831 Annex V.A8; method *: 40° C., 0.1% aqueous formic acid and acetonitrile, linear gradient 10% to 95% acetonitrile
row,logP,Compound
1,1.88*,O=C1COCCN1c1cccc(Nc2ncc(C(F)(F)F)c(NC3CC3)n2)c1 [compound 790]
2,3.09*,CCSC(C)c1cccc(Nc2ncc(Br)c(NC3CC3)n2)c1 (stereo not shown) [compound 797]
3,1.46*;,O=c1ccccn1-c1cccc(Nc2ncc(Br)c(NC3CC3)n2)c1 [compound 833]

# Same assay, conditions: method **: HPLC reversed-phase C 18, 43° C., 0.1% aqueous phosphoric acid and acetonitrile, linear gradient 10% to 95% acetonitrile
row,logP,Compound
1,2.23**,CCOC1(Nc2nc(Nc3ccccc3)ncc2Cl)CC1.Cl [compound 38]

# Same assay, conditions: method **: HPLC reversed-phase C 18, temperature 43° C.; mobile phase 0.1% aqueous phosphoric acid and acetonitrile; linear gradient 10% to 95% acetonitrile
row,logP,Compound
1,2.38**,Brc1cnc(Nc2cccc(N3CCCC3)c2)nc1NC1CC1 [compound 621]
2,1.77**,CC(=O)Nc1cccc(Nc2ncc(C(F)(F)F)c(NC3CC3)n2)c1 [compound 649]

# Same assay, conditions: method *: HPLC reversed-phase C18, 40° C., 0.1% aqueous formic acid and acetonitrile, linear gradient 10% to 95% acetonitrile
row,Compound,logP
1,CNC(=O)c1cccc(Nc2ncc(Br)c(NCC3CC3)n2)c1 [compound 427],1.53*
2,Cc1cnc(Nc2ccccc2)nc1NC1CC1 [Example 51],1.5*
3,CC(C)COc1cccc(Nc2ncc(Cl)c(NC3CC3)n2)c1 [compound 444],3.17*
4,CCSc1cccc(Nc2ncc(Cl)c(NC3CC3)n2)c1.Cc1ccc(S(=O)(=O)O)cc1 [compound 440],2.73*
5,COc1cc(Nc2ncc(Cl)c(NC3CC3)n2)cc(OC)c1OC [Example 4],1.73*

# Further lines, results first:
row,logP,Compound
1,1.06*,COC(=O)Nc1ccc(Nc2ncc(C)c(NC3CC3)n2)cc1 [compound 446]
2,2.15*,CC(C)(C)OC(=O)NCc1ccc(Nc2ncc(Cl)c(NC3CC3)n2)cc1 [compound 90]
3,1.84*,Clc1cnc(Nc2ccccc2)nc1NC1CC1 [Example 76]
4,1.8*,Fc1ccc(Nc2ncc(Cl)c(NC3CC3)n2)cc1 [Example 80]
5,2.4*,CC(C)(C)OC(=O)N1CCN(c2ccc(Nc3ncc(Cl)c(NC4CC4)n3)cc2)CC1 [compound 7]

# Same assay, conditions: method *: HPLC reversed-phase C 18, temperature 40° C.; mobile phase 0.1% aqueous formic acid and acetonitrile; linear gradient 10% to 95% acetonitrile
row,Compound,logP
1,CC(C)(C)OC(=O)NCc1ccc(Nc2ncc(C#N)c(NC3CC3)n2)cc1 [compound 615],2.77*
2,CCc1cccc(Nc2ncc(Cl)c(NC3CC3)n2)c1 [compound 634],2.35*
3,CC(=O)Nc1cccc(Nc2ncc(C(F)(F)F)c(NC3CC3)n2)c1 [compound 649],1.78*;

# More lines, now with the values ahead:
row,logP,Compound
1,1.46*,CCOC(=O)Nc1ccc(Nc2ncc(F)c(NC3CC3)n2)cc1 [compound 595]
2,1.35*,O=C1CCCN1c1ccc(Nc2ncc(F)c(NC3CC3)n2)cc1 [compound 593]
3,1.15*,CC(=O)Nc1cc(Nc2ncc(F)c(NC3CC3)n2)ccc1C [compound 601]
4,2.33*,Fc1cnc(Nc2cccc(OC(F)(F)F)c2)nc1NC1CC1 [compound 576]

# Same assay, conditions: method *: HPLC, reversed-phase C 18, 40° C., mobile phase 0.1% aqueous formic acid and acetonitrile, linear gradient from 10% to 95% acetonitrile
row,logP,Compound
1,2.07*,CCNC(=O)c1cccc(Nc2ncc(C(F)(F)F)c(NC3CC3)n2)c1 [compound 1031]
2,4.37*,CCSC(C)c1cccc(Nc2ncc(C(F)(F)F)c(NCC3CC3)n2)c1 (stereo not shown) [compound 988]
3,1.56*,CCN(C)C(=O)c1cccc(Nc2ncc(Cl)c(NC3CC3)n2)c1 [compound 1060]
4,3.69*,Clc1cnc(Nc2ccc(Sc3ccccc3)cc2)nc1NC1CC1 [compound 1013]
5,3.41*,CCC(CC)c1ccc(Nc2ncc(Cl)c(NC3CC3)n2)cc1 [compound 1033]

# Same assay, conditions: pH 2.3; read-out: logP (pH2.3)
row,chromatographic logP,Compound
1,1.56,O=c1[nH]c(Nc2ccccc2)ncc1Cl [2-Anilino-5-chloropyrimidin-4(3H)-one]
2,2.39,FC(F)(F)c1cnc(Cl)nc1NC1CC1 [2-chloro-N-cyclopropyl-5-trifluoromethylpyrimidine-4-amine]
